Measured values taken from the supplement of paper PMC10307832.

Columns and labels:
Assay in all cases: relative viability (nuclei count vs DMSO), 5 days (fraction); higher = more cells survive
[1] = compound: O[C@H]1CC[C@H](Nc2ncc3nc(Nc4c(F)cc(F)cc4F)n([C@H]4CCOC4)c3n2)CC1 [Tanzisertib] + O=C(CCCCCCC(=O)Nc1ccccc1)NO [Vorinostat] (partner 1 µM)
In short: (§1)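 Lung cancer cell lines were pin-tool dosed in 1536-well plates on the day after seeding, with either a lone drug or a fixed anchor-drug dose plus five library-drug doses (not always all listed) in √10 steps. Nuclei were counted on 4× images after 5 days. Relative viability is the ratio of treated-well to vehicle-well nuclei counts, with each value a median of duplicate plates.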

[2] = compound: C[C@@H](N)c1ccc(C(=O)Nc2ccnc3[nH]ccc23)cc1 + CC1(C)CCC(c2ccc(Cl)cc2)=C(CN2CCN(c3ccc(C(=O)NS(=O)(=O)c4ccc(N[C@H](CCN5CCOCC5)CSc5ccccc5)c(S(=O)(=O)C(F)(F)F)c4)cc3)CC2)C1 [Navitoclax] (partner 0.5 µM)
In short: as §1

[3] = compound: O[C@H]1CC[C@H](Nc2ncc3nc(Nc4c(F)cc(F)cc4F)n([C@H]4CCOC4)c3n2)CC1 [Tanzisertib] + Nc1ncn([C@H]2C[C@H](O)[C@@H](CO)O2)c(=O)n1 [Decitabine] (partner 2 µM)
In short: as §1

[4] = compound: O[C@H]1CC[C@H](Nc2ncc3nc(Nc4c(F)cc(F)cc4F)n([C@H]4CCOC4)c3n2)CC1 [Tanzisertib] + NC(=O)Nc1cc(-c2cccc(F)c2)sc1C(=O)N[C@H]1CCCNC1 [AZD7762] (partner 0.2 µM)
In short: as §1

Cell Line | relative viability ([1]; first compound 0.08 µM) | relative viability ([1]; first compound 0.253 µM) | relative viability ([1]; first compound 0.8 µM) | relative viability ([1]; first compound 2.53 µM) | relative viability ([1]; first compound 8 µM) | relative viability ([2]; first compound 0.04 µM) | relative viability ([2]; first compound 0.1265 µM) | relative viability ([2]; first compound 0.4 µM) | relative viability ([2]; first compound 1.265 µM) | relative viability ([2]; first compound 4 µM) | relative viability ([3]; first compound 0.08 µM) | relative viability ([3]; first compound 0.253 µM) | relative viability ([3]; first compound 0.8 µM) | relative viability ([3]; first compound 2.53 µM) | relative viability ([3]; first compound 8 µM) | relative viability ([4]; first compound 0.08 µM) | relative viability ([4]; first compound 0.253 µM) | relative viability ([4]; first compound 0.8 µM) | relative viability ([4]; first compound 2.53 µM) | relative viability ([4]; first compound 8 µM)
IA-LM | 1.2 | 0.899 | 0.912 | 0.939 | 0.822 | 0.799 | 0.93 | 0.929 | 1.03 | 0.989 |  |  |  |  |  |  |  |  |  | 
NCI-H1792 |  |  |  |  |  | 0.668 | 0.592 | 0.644 | 0.415 | 0.567 | 0.668 | 0.539 | 0.487 | 0.569 | 0.566 | 0.842 | 0.693 | 0.742 | 0.697 | 0.523
NCI-H520 | 0.866 | 0.749 | 0.789 | 0.724 | 0.73 | 1.03 | 1.01 | 1.05 | 1.14 | 1.14 | 0.565 | 0.483 | 0.533 | 0.491 | 0.459 |  |  |  |  | 
SW 900 |  | 0.604 | 0.641 | 0.512 | 0.382 |  |  |  |  |  |  | 0.485 | 0.412 | 0.328 | 0.438 |  | 0.646 | 0.603 | 0.727 | 0.423
SK-MES-1 | 1.27 | 1.1 | 1.04 | 1.07 | 0.78 | 1.4 | 1.39 | 1.34 | 1.33 | 1.14 | 0.365 | 0.409 | 0.364 | 0.34 | 0.327 |  |  |  |  | 
NCI-H2023 | 0.826 | 0.502 | 0.803 | 0.555 | 0.625 | 1.09 | 1.02 | 1.08 | 1.07 | 0.799 | 0.249 | 0.21 | 0.217 | 0.165 | 0.166 |  |  |  |  | 
NCI-H1299 |  |  |  |  |  | 1.06 | 0.988 | 0.983 | 0.973 | 0.932 |  |  |  |  |  |  |  |  |  | 
NCI-H661 | 0.799 | 0.724 | 0.798 | 0.859 | 0.797 |  |  |  |  |  | 0.55 | 0.566 | 0.522 | 0.502 | 0.487 |  |  |  |  | 
NCI-H1650 | 0.551 | 0.601 | 0.501 | 0.625 | 0.491 | 1.35 | 1.3 | 1.4 | 1.45 | 0.863 | 0.408 | 0.452 | 0.393 | 0.384 | 0.453 |  |  |  |  | 
Calu-6 |  |  |  |  |  | 0.849 | 1.02 | 0.855 | 0.836 | 0.678 |  |  |  |  |  |  |  |  |  | 
NCI-H650 | 0.404 | 0.421 | 0.432 | 0.45 | 0.282 |  |  |  |  |  | 0.33 | 0.321 | 0.305 | 0.337 | 0.284 | 1.03 | 1.32 | 1.01 | 1.3 | 0.489
NCI-H1703 |  |  |  |  |  | 1.28 | 1.11 | 1.06 |  | 0.616 |  |  |  |  |  | 0.146 | 0.13 | 0.118 | 0.135 | 0.113
EBC-1 |  |  |  |  |  | 0.414 | 0.406 | 0.379 | 0.377 | 0.347 |  |  |  |  |  |  |  |  |  | 
NCI-H2342 | 0.801 | 0.847 | 0.816 | 0.765 | 0.754 |  |  |  |  |  | 0.78 | 0.778 | 0.694 | 0.781 | 0.815 | 0.416 | 0.633 | 0.515 | 0.477 | 0.41
COR-L23 | 0.438 | 0.504 | 0.479 | 0.494 | 0.537 | 1.03 | 1.16 | 0.886 | 0.766 | 0.481 | 0.454 | 0.502 | 0.411 | 0.511 | 0.467 |  |  |  |  | 
SW 1573 | 1.21 | 0.666 | 0.72 | 1.04 | 0.566 | 1.14 | 0.927 | 1.12 | 0.774 | 0.426 | 0.595 | 0.471 | 0.535 | 0.516 | 0.394 |  |  |  |  | 
NCI-H1648 | 0.553 | 0.36 | 0.398 | 0.571 | 0.391 |  |  |  |  |  | 0.487 | 0.6 | 0.613 | 0.524 | 0.376 | 0.683 | 0.629 | 0.73 | 0.676 | 0.595
SK-LU-1 | 0.848 | 0.824 | 0.734 | 0.9 | 0.828 | 0.922 | 0.786 | 0.778 | 0.633 | 0.503 | 0.707 | 0.796 | 0.623 | 0.616 | 0.647 |  |  |  |  | 
NCI-H522 | 0.913 | 0.902 | 0.773 | 0.762 | 0.836 |  |  |  |  |  | 0.807 | 0.699 | 0.618 | 0.803 | 0.636 | 1.1 | 0.891 | 0.839 | 0.955 | 0.886
A549 |  |  |  |  |  | 1.23 | 1.31 | 1.18 | 1.21 | 0.714 | 0.246 | 0.25 | 0.277 | 0.267 | 0.127 |  |  |  |  | 
LCLC-103H | 0.896 | 0.773 | 0.801 | 0.783 | 0.653 |  |  |  |  |  | 0.763 | 0.768 | 0.711 | 0.672 | 0.72 | 0.877 | 0.735 | 0.769 | 0.8 | 0.754
